Where two headings read alike, the source gives them in different places.
Columns and labels:
[1] = tested on: postoperative ocular pain in patients undergoing photorefractive keratectomy (PRK) surgery; assay: PRK clinical study, Ocular Pain Assessment Survey (OPAS); format: in vivo, human
Description: The Ocular Pain Assessment Survey (OPAS) is a quantitative, multidimensional questionnaire, specifically designed for assessment of corneal and ocular surface pain and Quality of Life (QoL) changes. The OPAS assesses pain intensity, frequency of eye and non-eye pain, QoL changes, aggravating factors, associated factors, and symptomatic relief quantitative, allowing for monitoring of treatment responses. See Qazi et al., Ophthalmology July 123(7):1458-1468 (2016).
The OPAS is a validated instrument for quantifying and monitoring corneal and ocular surface pain and quality of life, developed in response to an identified need from a National Eye Institute Workshop in 2010. See Qazi et al., Ophthalmology July 123(7):1458-1468 (2016). The rating scale of the overall pain severity in the OPAS from Qazi et al. rated from 0 (no pain) to 10 (severe pain) or for frequency of symptoms from 0% (never) to 100% (all the time), as per the survey. The patients were asked to fill out the OPAS survey/questionnaire at Day 2, Day 4 (at the end of treatment period with study drug) and Day 8. Statistical analysis of OPAS results was not performed.

[2] = PRK clinical study, plasma pharmacokinetics of compound I (LC-MS/MS); format: in vivo, human
Description: Pharmacokinetic (PK) samples were collected at the time points defined in the visit schedule supra, with PK blood collection windows shown in Table 27.
All blood samples (3 mL) were taken from the arm by either direct venipuncture or an indwelling catheter inserted in a forearm vein. After each tube of blood was drawn, it was immediately inverted gently 8-10 times to ensure the mixing of tube contents with anticoagulant (3 mL K2 EDTA). Prolonged sample contact with the rubber stopper was avoided and the tubes were placed upright in a test tube rack surrounded by wet ice until centrifugation.
Within 30 minutes, the sample was centrifuged at about 5° C. for 10 minutes at approximately 2000 G (or the sample was placed on ice and centrifuged at room temperature). Immediately after centrifugation, the whole supernatant (approx. 1.5 mL) was transferred in the first 1.8 mL NUNC 2D barcoded cryovial. After mixing the plasma thoroughly, half of the plasma was transferred from the first cryovial to the second cryovial and the caps were secured. Appropriate PK cryolabels were attached to each cryovial and the labels were secured with clear tape. The cryovials were frozen immediately over dry ice then, kept frozen at ≤−20° C. until shipment to the central lab. The vials were shipped in biweekly batches.
Compound I was quantified in plasma using a validated LC-MS/MS method; the lower limit of quantification (LLOQ) was 0.05 ng/mL. Concentrations were expressed in ng per mL units. When feasible, bandage contact lenses (BCL) exposed to study drug were collected and analyzed for residual drug exposure after treatment (LLOQ: 5.00 ng/mL in 0.55 mL of extraction fluid, or 2.75 ng/BCL). Concentrations below the LLOQ were reported as “zero” and missing data were labeled as such.
The following PK parameters were determined as relevant using the actual recorded sampling times and non-compartmental method with Phoenix™ WinNonlin® (Version 6.4): Cmax, Tmax, AUClast (calculated), Clast and Tlast from the plasma concentration-time data. Pre-dose concentrations were determined by inspection at nominal 0, 24 and 72 hours. The linear trapezoidal rule was used for AUClast calculation. No PK parameters were calculated from the bandage contact lenses compound I concentration data.

[3] = Pharmacokinetic study of exploratory formulations, single bilateral topical ocular dosing; format: in vivo; settings: NZW rabbits
Description: A pharmacokinetics study was conducted to determine the ocular uptake of compound I following single bilateral topical ocular dosing of male NZW rabbits with the four exploratory formulations provided in Table 2: FID 121522, FID 121511, FID 121512, FID 121513.

[4] = Day 1, plasma, topical ocular 2.5% compound I
[5] = Day 4, plasma, topical ocular 2.5% compound I
[6] = human, plasma, topical, 2.5 %, 4 days

## CC(C)c1nc2cc(O)ccc2c(=O)n1-c1ccc(C#N)cc1 [Compound I, 4-(7-hydroxy-2-isopropyl-4-oxo-4H-quinazolin-3-yl)-benzonitrile]
[1]; Day 2
  OPAS eye pain intensity during the previous 24 hours (questions 4, 5, 6) versus Vehicle: all 3 answers numerically favored compound I
[1]; human, in vivo
  OPAS how often eye pain with redness, burning, sensitivity to light, tearing (questions 22-25) versus Vehicle: all answers favored compound I
[2]; [4]
  Median Tlast: 2.00 h
  Tlast (range): 1.95 to 2.05 h
[2]; [5]
  Median Tlast: 2.00 h
  Tlast (range): 1.77 to 2.10 h
[2]; LLOQ 0.05 ng/mL
  Day 1 pre-dose plasma concentrations: below the limit of quantitation
[2]; human, plasma, topical or ocular, 2.5 %, after either single (first dose) or repeated 4 times daily topical ocular administration, read-out: median plasma Tmax
  Tmax: ~30 min
[2]; human, plasma, topical or ocular, 2.5 %, after the first dose (Day 1), unilateral topical ocular 2.5%, read-out: median Tmax, plasma
  Tmax: 27.5 min
[2]; human, plasma, topical or ocular, 2.5 %, max, profile day 1, plasma, topical ocular 2.5% compound I, read-out: AUClast
  AUC(0-t): 1.58 ng·h/mL
[2]; human, plasma, topical or ocular, 2.5 %, max, profile day 1, plasma, topical ocular 2.5% compound I, read-out: Cmax
  Cmax: 1.05 ng/mL
[2]; human, plasma, topical or ocular, 2.5 %, max, profile day 1, plasma, topical ocular 2.5% compound I, read-out: Tmax
  Tmax: 120 min
[2]; human, plasma, topical or ocular, 2.5 %, max, profile day 4, plasma, topical ocular 2.5% compound I, read-out: AUClast
  AUC(0-t): 14.5 ng·h/mL
[2]; human, plasma, topical or ocular, 2.5 %, max, profile day 4, plasma, topical ocular 2.5% compound I, read-out: Cmax
  Cmax: 7.56 ng/mL
[2]; human, plasma, topical or ocular, 2.5 %, max, profile day 4, plasma, topical ocular 2.5% compound I, read-out: Tmax
  Tmax: 125 min
[2]; human, plasma, topical or ocular, 2.5 %, mean, profile day 1 (first dose), plasma, topical ocular 2.5% compound I, PK analysis set, read-out: Cmax
  Cmax: 0.454 ng/mL
[2]; human, plasma, topical or ocular, 2.5 %, mean, profile day 1, plasma, topical ocular 2.5% compound I, read-out: AUClast
  AUC(0-t): 0.638 ng·h/mL
[2]; human, plasma, topical or ocular, 2.5 %, mean, profile day 4 (13th dose, QID), plasma, topical ocular 2.5% compound I, read-out: Cmax
  Cmax: 2.4 ng/mL
[2]; human, plasma, topical or ocular, 2.5 %, mean, profile day 4, plasma, topical ocular 2.5% compound I, read-out: AUClast
  AUC(0-t): 4.38 ng·h/mL
[2]; human, plasma, topical or ocular, 2.5 %, median, profile day 1, plasma, topical ocular 2.5% compound I, read-out: AUClast
  AUC(0-t): 0.569 ng·h/mL
[2]; human, plasma, topical or ocular, 2.5 %, median, profile day 1, plasma, topical ocular 2.5% compound I, read-out: Cmax
  Cmax: 0.375 ng/mL
[2]; human, plasma, topical or ocular, 2.5 %, median, profile day 1, plasma, topical ocular 2.5% compound I, read-out: Tmax
  Tmax: 27.5 min
[2]; human, plasma, topical or ocular, 2.5 %, median, profile day 4, plasma, topical ocular 2.5% compound I, read-out: AUClast
  AUC(0-t): 3.42 ng·h/mL
[2]; human, plasma, topical or ocular, 2.5 %, median, profile day 4, plasma, topical ocular 2.5% compound I, read-out: Cmax
  Cmax: 2.07 ng/mL
[2]; human, plasma, topical or ocular, 2.5 %, median, profile day 4, plasma, topical ocular 2.5% compound I, read-out: Tmax
  Tmax: 28 min
[2]; human, plasma, topical or ocular, 2.5 %, min, profile day 1, plasma, topical ocular 2.5% compound I, read-out: AUClast
  AUC(0-t): 0.261 ng·h/mL
[2]; human, plasma, topical or ocular, 2.5 %, min, profile day 1, plasma, topical ocular 2.5% compound I, read-out: Cmax
  Cmax: 0.195 ng/mL
[2]; human, plasma, topical or ocular, 2.5 %, min, profile day 1, plasma, topical ocular 2.5% compound I, read-out: Tmax
  Tmax: 10 min
[2]; human, plasma, topical or ocular, 2.5 %, min, profile day 4, plasma, topical ocular 2.5% compound I, read-out: AUClast
  AUC(0-t): 1.18 ng·h/mL
[2]; human, plasma, topical or ocular, 2.5 %, min, profile day 4, plasma, topical ocular 2.5% compound I, read-out: Cmax
  Cmax: 0.639 ng/mL
[2]; human, plasma, topical or ocular, 2.5 %, min, profile day 4, plasma, topical ocular 2.5% compound I, read-out: Tmax
  Tmax: 0 min
[2]; human, plasma, topical, 2.5 %, 13th dose on Day 4, read-out: Arithmetic mean plasma Cmax
  Cmax: 2.4 ng/mL
[2]; human, plasma, topical, 2.5 %, 13th dose on Day 4, read-out: mean plasma AUClast
  AUC(0-t): 4.38 ng·h/mL
[2]; [6]
  mean AUClast Day 4 versus Day 1: 6.9 fold
  mean Cmax Day 4 versus Day 1: 5.3 fold
[2]; human, plasma, topical, 2.5 %, across 4 days of repeated QID dosing, read-out: observed plasma Cmax, range
  Cmax: 0.195 to 7.56 ng/mL
[2]; human, plasma, topical, 2.5 %, across 4 days of repeated QID dosing, read-out: plasma AUClast, range
  AUC(0-t): 0.261 to 14.5 ng·h/mL
[2]; human, plasma, topical, 2.5 %, after the 13th dose (Day 4), read-out: median Tmax, plasma
  Tmax: 28 min
[2]; human, plasma, topical, 2.5 %, first dose on Day 1, read-out: Arithmetic mean plasma Cmax
  Cmax: 0.454 ng/mL
[2]; human, plasma, topical, 2.5 %, first dose on Day 1, read-out: mean plasma AUClast
  AUC(0-t): 0.638 ng·h/mL
[2]; human, plasma, topical, 2.5 %, prior to the 5th dose on Day 2 (24 hr post 1st dose), read-out: Trough mean plasma concentration
  concentration at 24 hr: 1.25 ng/mL
[2]; human, plasma, topical, 2.5 %, prior to the 13th dose on Day 4 (72 hr post 1st dose), read-out: Trough mean plasma concentration
  concentration at 72 hr: 1.99 ng/mL
[3]
  exposure in cornea relative to aqueous humor and iris-ciliary body: approximately 10 times
[3]; male, rabbit, cornea / plasma, topical, read-out: exposure in cornea relative to plasma
  Kp: ~500

Source: patent publication US20200390767A1, “Formulations of 4-(7-Hydroxy-2-isopropyl-4-oxo-4H-quinazolin-3-yl)-benzonitrile” (NOVARTIS AG, priority 2019, published 2020)
